The test system of the assay is Pyrenophora teres. Description: Activity against net blotch of barley caused by Pyrenophora teres, 2-day protective application. Conditions: individual active compound, barley seedlings cultivar Hanna, inoculated 48 hours after spraying, evaluated after 6 days. It counts as in vivo. How it is done:
The active compounds were used either as a commercial formulation or employed as a stock solution. The stock solution was prepared from 25 mg of active compound which had been made up to 10 ml using a mixture of acetone and/or DMSO as solvent and the emulsifier Uniperol® EL (wetting agent having emulsifying and dispersing action based on ethoxylated alkylphenols) in a volume ratio of solvent to emulsifier of 99:1. The volume was then made up to 100 ml using water.
Evaluation was carried out by visually determining the infected leaf areas in %. These percentages were converted into efficacies in % of the untreated control. At an efficacy of 0, the infection of the treated plants corresponds to that of the untreated control plants; at an efficacy of 100, the treated plants are not infected.
The expected efficacies for active compound combinations were determined using Colby's formula (Colby, S. R., “Calculating synergistic and antagonistic responses of herbicide combinations”, Weeds, 15, pp. 20-22, 1967) and compared to the observed efficacies.
Colby's formula: E=x+y−xy/100
E expected efficacy, expressed in % of the untreated control, when using the mixture of the active compounds A and B at the concentrations a and b x efficacy, expressed in % of the untreated control, when using the active compound A at the concentration a y efficacy, expressed in % of the untreated control, when using the active compound B at the concentration b Activity against net blotch of barley caused by Pyrenophora teres, 2-day protective application Leaves of potted barley seedlings of the cultivar “Hanna” were sprayed to runoff point with an aqueous suspension having the concentration of active compound stated below. 48 hours after the spray coating had dried on, the test plants were inoculated with an aqueous spore suspension of Pyrenophora teres (synonym Drechslera teres), the net blotch pathogen. […] After 6 days, the extent of the development of the disease was determined visually in % infection of the total leaf area.

This passage reports Efficacy results from patent publication US20090131462A1, “Fungicidally Active Agent” (BASF AKTIENGESELLSCHAFT, priority 2005, published 2009).

Regarding metiram, the Efficacy (250 ppm in the spray liquor) amounted to 0%.
Consider `CC(C)CC(C)c1sccc1NC(=O)c1cn(C)nc1C(F)(F)F` (stereo not drawn) [compound A, N-[2-(1,3-dimethylbutyl)-3-thienyl]-1-methyl-3-(trifluoromethyl)-1H-pyrazole-4-carboxamide], for which the Efficacy reads like this: (4 ppm in the spray liquor, % of the untreated control) 22%; (concentration in the spray liquor printed as 0 ppm) 0.5%.
